{"source": "ChEMBL document CHEMBL5104145", "about": "“Synthesis of antiplasmodial 2-aminothieno[3,2-d]pyrimidin-4(3H)-one analogues using the scaffold hopping strategy” (Eur J Med Chem, 2022)", "key": {"Plasmodium falciparum [1]": {"test_system": "Plasmodium falciparum", "experiment": "Antiplasmodial activity against chloroquine,pyrimethamine and proguanil resistant blood stage Plasmodium falciparum K1 assessed as reduction in parasite growth incubated for 72 hrs by SYBR Green I fluorescence-based method", "assay_type": "functional, organism-based"}, "[2]": {"experiment": "Selectivity index, ratio of CC50 for cytotoxicity against human HepG2 cells to EC50 for antiplasmodial activity against chloroquine,pyrimethamine and proguanil resistant blood stage Plasmodium falciparum K1", "assay_type": "toxicity, cell-based", "conditions": "for selectivity ratio: HepG2 cells, read-out: Ratio CC50/EC50"}, "HepG2": {"test_system": "HepG2", "experiment": "(§1) Cytotoxicity against human HepG2 cells assessed as reduction in cell viability incubated for 72 hrs by MTT assay", "assay_type": "toxicity, cell-based", "conditions": "hepg2, 72 h, 72 h"}, "[3]": {"experiment": "Solubility of compound in culture media", "assay_type": "physicochemical"}, "[4]": {"experiment": "as §1", "assay_type": "toxicity, cell-based", "conditions": "HepG2 cells"}, "Plasmodium falciparum [5]": {"test_system": "Plasmodium falciparum", "experiment": "Antiplasmodial activity against Plasmodium falciparum K1 assessed as reduction in parasite growth", "assay_type": "functional, organism-based"}, "[6]": {"experiment": "Permeability of compound at 100 uM at pH 7.4 incubated for 4 hrs by PAMPA-GIT assay", "assay_type": "ADME", "conditions": "read-out: permeability"}, "[7]": {"experiment": "Thermodynamic solubility of compound at pH 7.4 incubated for 24 hrs by shake-flask method", "assay_type": "physicochemical", "conditions": "buffer, read-out: Therm_solubility"}, "[8]": {"experiment": "Permeability of compound at 100 uM at pH 6 incubated for 4 hrs by PAMPA-GIT assay", "assay_type": "ADME", "conditions": "read-out: permeability"}, "[9]": {"experiment": "Permeability of compound at 100 uM at pH 5 incubated for 4 hrs by PAMPA-GIT assay", "assay_type": "ADME", "conditions": "read-out: permeability"}, "[10]": {"conditions": "Plasmodium falciparum, K1, 72 h"}}}
{"smiles": "Cc1ccc(-c2cc3nc(NC(C)C)[nH]c(=O)c3[se]2)cc1.Cl", "values": [{"measurement": "EC50", "setting": "Plasmodium falciparum [1]", "result": 0.77, "unit": "µM"}, {"measurement": "Ratio CC50/EC50", "setting": "[2]", "result": "> 13"}, {"measurement": "CC50", "setting": "HepG2", "result": "> 10", "unit": "µM"}]}
{"smiles": "CC(C)(C)Nc1nc2nc(-c3ccc(Cl)cc3)sc2c(=O)[nH]1", "values": [{"measurement": "solubility", "setting": "[3]", "result": "Insoluble"}]}
{"smiles": "Cc1ccc(-c2cc3nc(NC(C)(C)C)[nH]c(=O)c3[se]2)cc1.Cl", "values": [{"measurement": "EC50", "setting": "Plasmodium falciparum [1]", "result": 0.13, "unit": "µM"}, {"measurement": "Ratio CC50/EC50", "setting": "[2]", "result": "> 24"}, {"measurement": "CC50", "setting": "HepG2", "result": "> 3.12", "unit": "µM"}]}
{"smiles": "Cc1c(-c2ccc(Cl)cc2)sc2c(=O)[nH]c(NC(C)C)nc12", "values": [{"measurement": "EC50", "setting": "Plasmodium falciparum [1]; [10]", "result": 4.4, "unit": "µM"}, {"measurement": "selectivity ratio", "setting": "[2]", "result": "> 5.7"}, {"measurement": "CC50 at 72 h", "setting": "[4]", "result": "> 25", "unit": "µM"}]}
{"smiles": "Cc1ccc(-c2cc3nc(NC(C)C)[nH]c(=O)c3[se]2)cc1", "values": [{"measurement": "EC50", "setting": "Plasmodium falciparum [1]; [10]", "result": 0.8, "unit": "µM"}, {"measurement": "Ratio CC50/EC50", "setting": "[2]", "result": "> 31.3"}, {"measurement": "CC50", "setting": "HepG2", "result": "> 25", "unit": "µM"}]}
{"smiles": "Cc1ccc(-c2ccc3c(=O)[nH]c(NC(C)(C)C)nc3c2)cc1", "values": [{"measurement": "EC50", "setting": "Plasmodium falciparum [5]", "result": "> 5", "unit": "µM"}]}
{"smiles": "Cc1ccc(-c2cc3nc(NC(C)(C)C)[nH]c(=O)c3o2)cc1", "values": [{"measurement": "EC50", "setting": "Plasmodium falciparum [1]", "result": 0.8, "unit": "µM"}, {"measurement": "Ratio CC50/EC50", "setting": "[2]", "result": 13.6}, {"measurement": "CC50 at 72 h", "setting": "[4]", "result": 10.9, "unit": "µM"}]}
{"smiles": "Cc1ccc(-c2cc3nc(NC(C)(C)C)[nH]c(=O)c3s2)cc1.Cl", "values": [{"measurement": "Papp at 4 h, 100 µM", "setting": "[6]", "result": 0.46, "unit": "×10⁻⁶ cm/s"}, {"measurement": "solubility thermodynamic at 24 h", "setting": "[7]", "result": 7.92, "unit": "µM"}]}
{"smiles": "Cc1ccc(-c2cc3nc(NC(C)(C)C)[nH]c(=O)c3[se]2)cc1", "values": [{"measurement": "EC50", "setting": "Plasmodium falciparum [1]", "result": 1.3, "unit": "µM"}, {"measurement": "Ratio CC50/EC50", "setting": "[2]", "result": "> 6"}, {"measurement": "CC50", "setting": "HepG2", "result": "> 7.8", "unit": "µM"}]}
{"smiles": "CC(C)(C)Nc1nc2cc(-c3ccc(F)cc3)oc2c(=O)[nH]1", "values": [{"measurement": "EC50", "setting": "Plasmodium falciparum [1]; [10]", "result": 2.9, "unit": "µM"}, {"measurement": "selectivity ratio", "setting": "[2]", "result": "> 1.1"}, {"measurement": "solubility", "setting": "[3]", "result": "Insoluble"}, {"measurement": "CC50 at 72 h", "setting": "[4]", "result": "> 3.12", "unit": "µM"}]}
{"smiles": "Cc1ccc(-c2ccc3nc(NC(C)(C)C)[nH]c(=O)c3c2)cc1", "values": [{"measurement": "EC50", "setting": "Plasmodium falciparum [5]", "result": "> 5", "unit": "µM"}]}
{"smiles": "CCOC(=O)c1[nH]c(-c2ccc(C)cc2)c2c(=O)[nH]c(NC(C)(C)C)nc12", "values": [{"measurement": "EC50", "setting": "Plasmodium falciparum [1]; [10]", "result": 17.1, "unit": "µM"}, {"measurement": "selectivity ratio", "setting": "[2]", "result": 0.4}, {"measurement": "CC50 at 72 h", "setting": "[4]", "result": 7.4, "unit": "µM"}]}
{"smiles": "CC(C)(C)Nc1nc2cc(-c3ccc(Cl)cc3)oc2c(=O)[nH]1", "values": [{"measurement": "EC50", "setting": "Plasmodium falciparum [1]; [10]", "result": 0.4, "unit": "µM"}, {"measurement": "selectivity ratio", "setting": "[2]", "result": "> 15.6"}, {"measurement": "solubility", "setting": "[3]", "result": "Insoluble"}, {"measurement": "CC50 at 72 h", "setting": "[4]", "result": "> 6.25", "unit": "µM"}]}
{"smiles": "CC(C)(C)Nc1nc2sc(-c3ccccc3)cc2c(=O)[nH]1", "values": [{"measurement": "EC50", "setting": "Plasmodium falciparum [1]; [10]", "result": 33.8, "unit": "µM"}, {"measurement": "selectivity ratio", "setting": "[2]", "result": "> 0.4"}, {"measurement": "CC50 at 72 h", "setting": "[4]", "result": "> 12.5", "unit": "µM"}]}
{"smiles": "Cc1c(-c2ccc(F)cc2)sc2c(=O)[nH]c(NC(C)C)nc12", "values": [{"measurement": "EC50", "setting": "Plasmodium falciparum [1]; [10]", "result": 4.3, "unit": "µM"}, {"measurement": "selectivity ratio", "setting": "[2]", "result": 4.6}, {"measurement": "CC50 at 72 h", "setting": "[4]", "result": 19.7, "unit": "µM"}]}
{"smiles": "Cc1ccc(-c2cc3nc(NC(C)(C)C)[nH]c(=O)c3o2)cc1.Cl", "values": [{"measurement": "EC50", "setting": "Plasmodium falciparum [1]", "result": 0.3, "unit": "µM"}, {"measurement": "Ratio CC50/EC50", "setting": "[2]", "result": 72.3}, {"measurement": "CC50", "setting": "HepG2", "result": 21.7, "unit": "µM"}]}
{"smiles": "CC(C)(C)Nc1nc2nc(-c3ccccc3)sc2c(=O)[nH]1", "values": [{"measurement": "EC50", "setting": "Plasmodium falciparum [1]; [10]", "result": "> 12.5", "unit": "µM"}, {"measurement": "CC50 at 72 h", "setting": "[4]", "result": "> 25", "unit": "µM"}]}
{"smiles": "Cc1ccc(-c2cc3nc(NC(C)C)[nH]c(=O)c3o2)cc1", "values": [{"measurement": "Papp at 4 h, 100 µM", "setting": "[8]", "result": 64.3, "unit": "×10⁻⁶ cm/s"}, {"measurement": "EC50", "setting": "Plasmodium falciparum [1]; [10]", "result": 0.09, "unit": "µM"}, {"measurement": "Papp at 4 h, 100 µM", "setting": "[6]", "result": 76.9, "unit": "×10⁻⁶ cm/s"}, {"measurement": "selectivity ratio", "setting": "[2]", "result": 227}, {"measurement": "CC50 at 72 h", "setting": "[4]", "result": 20.4, "unit": "µM"}, {"measurement": "Papp at 4 h, 100 µM", "setting": "[9]", "result": 41.1, "unit": "×10⁻⁶ cm/s"}, {"measurement": "solubility thermodynamic at 24 h", "setting": "[7]", "result": 11.5, "unit": "µM"}]}
{"smiles": "CC(C)(C)Nc1nc2sc(-c3ccc(F)cc3)cc2c(=O)[nH]1", "values": [{"measurement": "EC50", "setting": "Plasmodium falciparum [1]; [10]", "result": "> 12.5", "unit": "µM"}, {"measurement": "CC50 at 72 h", "setting": "[4]", "result": "> 25", "unit": "µM"}]}
{"smiles": "Cc1ccc(-c2nc3nc(NC(C)(C)C)[nH]c(=O)c3s2)cc1", "values": [{"measurement": "EC50", "setting": "Plasmodium falciparum [1]; [10]", "result": 4.6, "unit": "µM"}, {"measurement": "selectivity ratio", "setting": "[2]", "result": "> 1.1"}, {"measurement": "CC50 at 72 h", "setting": "[4]", "result": "> 5", "unit": "µM"}]}
{"smiles": "Cc1ccc(-c2cc3c(=O)[nH]c(NC(C)(C)C)nc3s2)cc1", "values": [{"measurement": "EC50", "setting": "Plasmodium falciparum [1]; [10]", "result": 32.4, "unit": "µM"}, {"measurement": "selectivity ratio", "setting": "[2]", "result": 0.6}, {"measurement": "CC50 at 72 h", "setting": "[4]", "result": 20.5, "unit": "µM"}]}
{"smiles": "Cc1ccc(-c2cc3nc(NC(C)(C)C)[nH]c(=O)c3s2)cc1", "values": [{"measurement": "Papp at 4 h, 100 µM", "setting": "[8]", "result": 1.86, "unit": "×10⁻⁶ cm/s"}, {"measurement": "Papp at 4 h, 100 µM", "setting": "[6]", "result": 2.05, "unit": "×10⁻⁶ cm/s"}, {"measurement": "Papp at 4 h, 100 µM", "setting": "[9]", "result": 4.18, "unit": "×10⁻⁶ cm/s"}, {"measurement": "solubility thermodynamic at 24 h", "setting": "[7]", "result": 1.56, "unit": "µM"}]}
{"smiles": "CC(C)(C)Nc1nc2sc(-c3ccc(Cl)cc3)cc2c(=O)[nH]1", "values": [{"measurement": "EC50", "setting": "Plasmodium falciparum [1]; [10]", "result": "> 50", "unit": "µM"}, {"measurement": "selectivity ratio", "setting": "[2]", "result": "< 0.4"}, {"measurement": "CC50 at 72 h", "setting": "[4]", "result": 21.4, "unit": "µM"}]}
{"smiles": "CC(C)(C)Nc1nc2nc(-c3ccc(F)cc3)sc2c(=O)[nH]1", "values": [{"measurement": "solubility", "setting": "[3]", "result": "Insoluble"}]}
